In patent US10231956B2, “3-(1H-pyrrolo[3,2-C]pyridin-2-YL)-1 H-pyrazolo[4,3-B]pyridines and therapeutic uses thereof” (Samumed, LLC, priority 2015, dated 2019):

Legend:
Format in all cases: cell-based
SW480 colon cancer cells = experiment: Cell viability assay (CellTiter-Blue) in SW480 colon cancer cells; conditions: Homo sapiens; for EC50: 96 h, four days, CellTiter-Blue; for inhibition at 10 µM: given for EC50 >10 μM, read-out: percent inhibition at 10 μM
Procedure: Representative compounds were screened using the following assay procedure to assess the effect on cell viability as described below.
Each compound was dissolved in DMSO as a 10 mM stock and used to prepare compound source plates. Serial dilution (1:3, 8-point dose-response curves from 10 μM to 0.0045 μM) and compound transfer was performed using the ECHO 550 (Labcyte, Sunnyvale, Calif.) into 96-well clear bottom, black-walled plates (Corning-Costar).
Approximately 2×10^3 SW480 colon cancer cells were seeded into each well and allowed to incubate in the presence or absence of compound for four days at 37° C./5% CO2. Eight replicates of DMSO-treated cells served as controls and cells treated with compound were performed in duplicate.
After incubation, 20 μL of CellTiter-Blue (Promega) was added to each well allowed to incubate for approximately 3 hours. This reagent was a buffered solution which contains resazurin, metabolically active cells were able to reduce rezarurin (blue) into resorufin (pink) which was highly fluorescent. This measured fluorescence was used as a readout for cell viability.
After incubation, the plates were read at Ex 560 nm Em 590 nm (Cytation 3, BioTek). Dose-response curves were generated and EC50 concentration values were calculated using non-linear regression curve fit in the GraphPad Prism (San Diego, Calif.) or Dotmatics' Studies Software (Bishops Stortford, UK). For EC50 of >10 μM, the percent inhibition at 10 μM is provided.

[1] = system: primary human mesenchymal stem cells (hMSCs); experiment: Induction of chondrogenesis in primary human mesenchymal stem cells (nodule count); conditions: 144 h, 6 days; for Emax: TGF-β3 10 ng/mL as positive control, read-out: Max. Activity as % TGF-β3 activity; for EC50: concentration required to induce 50% levels of chondrogenesis vs TGF-β3, read-out: Conc (nM) of 50% TGF-β3 activity
Procedure: Representative compounds were screened using primary human mesenchymal stem cells (hMSCs) to determine their ability to induce chondrogenesis (process by which cartilage is developed).
Human Mesenchymal Stem Cell Culture: Primary human mesenchymal stem cells (hMSCs) were purchased from Lonza (Walkersville, Md.) and expanded in Mesenchymal Stem Cell Growth Media (Lonza). Cells between passage 3 and 6 were used for the experiments.
Compound Screening: Each compound was dissolved in DMSO as a 10 mM stock and used to prepare compound source plates. Serial dilution (1:3, 6-point dose-response curves from 2700 nM to 10 nM) and compound transfer was performed using the ECHO 550 (Labcyte, Sunnyvale, Calif.) into 96-well clear bottom assay plates (Greiner Bio-One) with appropriate DMSO backfill for a final DMSO concentration of 0.03%. hMSCs were plated at 20,000 cells/well in 250 μL/well Incomplete Chondrogenic Induction Medium (Lonza; DMEM, dexamethasone, ascorbate, insulin-transferrin-selenium [ITS supplement], gentamycin-amphotericin [GA-1000], sodium pyruvate, proline and L-glutamine). TGF-β3 (10 ng/mL) was used as a positive control for differentiation while negative control wells were treated with 75 nL DMSO for normalization and calculating EC50 values. Cells were incubated at 37° C. and 5% CO2 for 6 days. To image chondrogenic nodules, the cells were fixed using 4% formaldehyde (Electron Microscopy Sciences), and stained with 2 μg/mL Rhodamine B (Sigma-Aldrich) and 20 μM Nile Red (Sigma-Aldrich) [Johnson K., et. al, A Stem Cell-Based Approach to Cartilage Repair, Science, (2012), 336(6082), 717-721]. The nodules imaged (4 images per well at 4× magnification) by excitation at 531 nm and emission at 625 nm and quantified using the CellInsight CX5 (Thermo Scientific). Number of nodules in each well was normalized to the average of 3 DMSO treated wells on the same plate using Excel (Microsoft Inc.). The normalized averages (fold change over DMSO) of 3 replicate wells for each compound concentration were calculated. Due to solubility limitations of some of the compounds, curve fitting was incomplete leading to inaccurate EC50 determinations.
Using TGF-β3 as a positive control, the concentration of representative compounds required to induce 50% levels of chondrogenesis is reported. In addition, the maximum activity of each compound and the respective dose that each compound reached maximum chondrogenesis activity is reported.

IL-6 = IL-6 inhibition in LPS-stimulated THP-1 cells (HTRF); conditions: Homo sapiens; for EC50: LPS 500 ng/mL, 22 hours, IL6 HTRF; for inhibition at 10 µM: given for EC50 >10 μM, LPS, IL6, 10 μM, read-out: percent inhibition at 10 μM
Procedure: Human Monocyte Cell Culture: Human monocyte cell line (THP-1 cells; Catalog # TIB-202, ATCC, Manassas, Va.) were cultured in Roswell Park Memorial Institute (RPMI) 1640 Medium (Catalog #21870-100, Buffalo, N.Y.) with 1% L-glutamine, 1% HEPES, 1% Sodium Pyruvate, 2% Sodium Bicarbonate supplemented with 100 units/mL penicillin, 50 μg/mL streptomycin, 2-mercaptoethanol (0.05 mM) [basal medium] and 10% fetal bovine serum (Catalog #16140089, Life Technologies, Carlsbad, Calif.) at 37° C. and 5% CO2.
Compound Screening: THP-1 cells were cultured in basal media with 1% FBS for 24 hours before the start of the assay. Each compound was dissolved in DMSO as a 10 mM stock and used to prepare compound source plates. Serial dilution (1:3, 10-point dose-response curves starting from 1 μM) and compound transfer was performed using the ECHO 550 (Labcyte, Sunnyvale, Calif.) into 384-well white low volume assay plates (Greiner Bio-One) with appropriate DMSO backfill for a final DMSO concentration of 0.1%. THP-1 cells were plated at 5000 cells/well in the 384-well plates and incubated at 37° C. for 2 h. 500 ng/mL of LPS was added after 2 hours and cells were incubated for another 22 hours at 37° C. Plates were spun in a centrifuge for 1 minute at 10,000 rpm and a mixture of anti-IL6 XL665, and anti-IL6 Cryptate diluted in reconstitution buffer (Cisbio Inc.) was added to each well. Following incubation for 3 hrs at room temperature, Homogeneous Time-Resolved Fluorescence (HTRF) was measured using the Envision (Perkin Elmer) at 665 nm and […]. The ratio of fluorescence at 665 nm to 620 nm was used as a readout for IL6 quantification. All samples were processed in duplicate. Readings were normalized to DMSO treated cells and normalized activities were utilized for EC50 calculations using the dose-response log (inhibitor) vs. response-variable slope (four parameters) nonlinear regression feature available in GraphPad Prism 5.0 (or Dotmatics). For EC50 of >10 μM, the percent inhibition at 10 μM is provided.

Compound	EC50 (SW480 colon cancer cells)	inhibition at 10 µM (SW480 colon cancer cells)	Emax [1]	EC50 (IL-6)	EC50 [1]	inhibition at 10 µM (IL-6)
Fc1cccc(-c2nccc3[nH]c(-c4n[nH]c5ccc(-c6cccnc6)nc45)cc23)c1 [Compound 4, 3-(4-(3-Fluorophenyl)-1H-pyrrolo[3,2-c]pyridin-2-yl)-5-(pyridin-3-yl)-1H-pyrazolo[4,3-b]pyridine]	> 10000 nM	25%	45%	51 nM	–	–
CN(C)c1cncc(-c2ccc3[nH]nc(-c4cc5c(-c6cccc(F)c6)nccc5[nH]4)c3n2)c1 [Compound 7, 5-(3-(4-(3-Fluorophenyl)-1H-pyrrolo[3,2-c]pyridin-2-yl)-1H-pyrazolo[4,3-b]pyridin-5-yl)-N,N-dimethylpyridin-3-amine]	483 nM	–	153%	104 nM	2700 nM	–
Fc1cccc(-c2nccc3[nH]c(-c4n[nH]c5ccc(-c6cncc(CN7CCCCC7)c6)nc45)cc23)c1 [Compound 15, 3-(4-(3-Fluorophenyl)-1H-pyrrolo[3,2-c]pyridin-2-yl)-5-(5-(piperidin-1-ylmethyl)pyridin-3-yl)-1H-pyrazolo[4,3-b]pyridine]	1140 nM	–	48%	9360 nM	–	–
O=C(Nc1cncc(-c2ccc3[nH]nc(-c4cc5c(-c6cccc(F)c6)nccc5[nH]4)c3n2)c1)C1CCCCC1 [Compound 23, N-(5-(3-(4-(3-Fluorophenyl)-1H-pyrrolo[3,2-c]pyridin-2-yl)-1H-pyrazolo [4,3-b]pyridin-5-yl)pyridin-3-yl)cyclohexanecarboxamide]	505 nM	–	–	> 10000 nM	–	10.6%
Cc1ccncc1-c1ccc2[nH]nc(-c3cc4c(-c5ccc(F)cc5)nccc4[nH]3)c2n1 [Compound 33, 3-(4-(4-Fluorophenyl)-1H-pyrrolo[3,2-c]pyridin-2-yl)-5-(4-methylpyridin-3-yl)-1H-pyrazolo[4,3-b]pyridine]	4470 nM	–	–	> 10000 nM	–	31.3%
O=C(Nc1cncc(-c2ccc3[nH]nc(-c4cc5c(-c6ccc(F)cc6)nccc5[nH]4)c3n2)c1)c1ccccc1 [Compound 39, N-(5-(3-(4-(4-Fluorophenyl)-1H-pyrrolo[3,2-c]pyridin-2-yl)-1H-pyrazolo [4,3-b]pyridin-5-yl)pyridin-3-yl)benzamide]	177 nM	–	–	> 10000 nM	–	3.3%
Fc1ccc(-c2nccc3[nH]c(-c4n[nH]c5ccc(-c6cncc(CN7CCC(F)(F)C7)c6)nc45)cc23)cc1 [Compound 54, 5-(5-((3,3-Difluoropyrrolidin-1-yl)methyl)pyridin-3-yl)-3-(4-(4-fluorophenyl)-1H-pyrrolo[3,2-c]pyridin-2-yl)-1H-pyrazolo[4,3-b]pyridine]	516 nM	–	106%	121 nM	900 nM	–
CC(C)CC(=O)Nc1cncc(-c2ccc3[nH]nc(-c4cc5c(-c6ccccc6F)nccc5[nH]4)c3n2)c1 [Compound 58, N-(5-(3-(4-(2-Fluorophenyl)-1H-pyrrolo[3,2-c]pyridin-2-yl)-1H-pyrazolo [4,3-b]pyridin-5-yl)pyridin-3-yl)-3-methylbutanamide]	370 nM	–	36%	74 nM	–	–
Fc1ccccc1-c1nccc2[nH]c(-c3n[nH]c4ccc(-c5cncnc5)nc34)cc12 [Compound 83, 3-(4-(2-Fluorophenyl)-1H-pyrrolo[3,2-c]pyridin-2-yl)-5-(pyrimidin-5-yl)-1H-pyrazolo[4,3-b]pyridine]	> 10000 nM	27.9%	–	61 nM	–	–
Nc1cncc(-c2ccc3[nH]nc(-c4cc5c(-c6ccncc6)nccc5[nH]4)c3n2)c1 [Compound 115, 5-(3-(4-(Pyridin-4-yl)-1H-pyrrolo[3,2-c]pyridin-2-yl)-1H-pyrazolo[4,3-b]pyridin-5-yl)pyridin-3-amine]	> 10000 nM	5.4%	–	421 nM	–	–
CC(C)CC(=O)Nc1cncc(-c2ccc3[nH]nc(-c4cc5c(N6CCN(C)CC6)nccc5[nH]4)c3n2)c1 [Compound 226, 3-Methyl-N-(5-(3-(4-(4-methylpiperazin-1-yl)-1H-pyrrolo[3,2-c]pyridin-2-yl)-1H-pyrazolo[4,3-b]pyridin-5-yl)pyridin-3-yl)butanamide]	> 10000 nM	37.8%	–	3140 nM	–	–
CN1CCN(c2nccc3[nH]c(-c4n[nH]c5ccc(-c6cncc(NC(=O)c7ccccc7)c6)nc45)cc23)CC1 [Compound 235, N-(5-(3-(4-(4-Methylpiperazin-1l-yl)-1H-pyrrolo[3,2-c]pyridin-2-yl)-1H-pyrazolo[4,3-b]pyridin-5-yl)pyridin-3-yl)benzamide]	> 10000 nM	29.1%	–	1000 nM	–	–
c1csc(-c2nccc3[nH]c(-c4n[nH]c5ccc(-c6ccncc6)nc45)cc23)c1 [Compound 354, 5-(Pyridin-4-yl)-3-(4-(thiophen-2-yl)-1H-pyrrolo[3,2-c]pyridin-2-yl)-1H-pyrazolo[4,3-b]pyridine]	2820 nM	–	–	> 10000 nM	–	43.5%
Fc1cccc(-c2nccc3[nH]c(-c4n[nH]c5ccc(-c6cncc(OCc7ccccc7)c6)nc45)cc23)c1 [Compound 518, 5-(5-(Benzyloxy)pyridin-3-yl)-3-(4-(3-fluorophenyl)-1H-pyrrolo[3,2-c]pyridin-2-yl)-1H-pyrazolo[4,3-b]pyridine]	1360 nM	–	–	> 10000 nM	–	27.5%
CN1CCN(c2nccc3[nH]c(-c4n[nH]c5ccc(-c6cncc(NC(=O)CC7CCNCC7)c6)nc45)cc23)CC1 [Compound 641, N-(5-(3-(4-(4-Methylpiperazin-1l-yl)-1H-pyrrolo[3,2-c]pyridin-2-yl)-1H-pyrazolo[4,3-b]pyridin-5-yl)pyridin-3-yl)-2-(piperidin-4-yl)acetamide]	> 10000 nM	16.3%	–	> 10000 nM	–	20.6%
